Where two headings read alike, the source gives them in different places.
Tests used:
aged-impaired (AI) rats [1] = experiment: Radial Arm Maze (RAM) behavioral task, spatial memory retention; type: in vivo, rat
Text: A Radial Arm Maze (RAM) behavioral task is one example of a cognitive test, specifically testing spacial memory (Chappell et al. Neuropharmacology 37: 481-487, 1998). The RAM apparatus consists of, e.g., eight equidistantly spaced arms. A maze arm projects from each facet of a center platform. A food well is located at the distal end of each arm. Food is used as a reward. Blocks can be positioned to prevent entry to any arm. Numerous extra maze cues surrounding the apparatus may also be provided. After habituation and training phases, spatial memory of the subjects may be tested in the RAM under control or test compound-treated conditions. As a part of the test, subjects are pretreated before trials with a vehicle control or one of a range of dosages of the test compound. At the beginning of each trial, a subset of the arms of the eight-arm maze is blocked. Subjects are allowed to obtain food on the unblocked arms to which access is permitted during this initial “information phase” of the trial. Subjects are then removed from the maze for a delay period, e.g., a 60 second delay, a 15 minute delay, a one-hour delay, a two-hour delay, a six hour delay, a 24 hour delay, or longer) between the information phase and the subsequent “retention test,” during which the barriers on the maze are removed, thus allowing access to all eight arms. […] The identity and configuration of the blocked arms vary across trials. The number of “errors” the subjects make during the retention test phase is tracked. An error occurs in the trial if the subjects entered an arm from which food had already been retrieved in the pre-delay component of the trial, or if it re-visits an arm in the post-delay session that had already been visited. A fewer number of errors would indicate better spatial memory. The number of errors made by the test subject, under various test compound treatment regimes, can then be compared for efficacy of the test compound in treating cognitive impairment associated with CNS disorders.
The effects of methyl 3,5-diphenylpyridazine-4-carboxylate on the in vivo spatial memory retention of aged-impaired (AI) rats were assessed in a Radial Arm Maze (RAM) behavioral task using vehicle control and four different dosage levels of methyl 3,5-diphenylpyridazine-4-carboxylate (0.1 mg/kg, 0.3 mg/kg, 1 mg/kg and 3 mg/kg, ip). RAM behavioral tasks were performed on eight AI rats. All five treatment conditions (vehicle and four dosage levels) were tested on all eight rats.
The RAM apparatus used consisted of eight equidistantly-spaced arms. An elevated maze arm (7 cm width×75 cm length) projected from each facet of an octagonal center platform (30 cm diameter, 51.5 cm height). Clear side walls on the arms were 10 cm high and were angled at 65° to form a trough. […]

[2] = type: in vivo, Long Evans rats; conditions: i.v.
Method: (§1) Food and water were available ad libitum.
For plasma exposures, blood samples were centrifuged at 14000 rpm for 16 minutes. After centrifuging, 50 ul of supernatant (plasma) from each sample was added to 200 μl of acetonitrile plus 0.1% formic acid. […] Samples were sonicated for 5 minutes in an ultrasonic water bath, followed by centrifugation for 30 minutes, at 16000 RPM. 100 ul of supernatant was removed from each sample vial and placed in a new glass auto sample vial, followed by the addition of 300 μl of sterile water (pH 6.5).
Additional studies were conducted in aged Long-Evans rats in order to determine the exposures at the behaviorally relevant doses in the cognition studies. Exposure in young Long-Evans rats was also determined to bridge with the receptor occupancy studies that were conducted in young Long-Evans rats. Exposures in young and aged Long-Evans rats were relatively similar (Table 4, FIG. 4).

GABAAα5 receptor = molecular target: T1, GABAAα5 receptor (Rattus norvegicus, UniProt P18508+P19969); experiment: in vivo; type: in vivo, Long Evans rats
T1 construct: occupancy in the hippocampus (a region of high GABAAα5 receptor density); from tissue; host or cells: rat brain in vivo: hippocampus versus cerebellum
Text: as §1

α5-containing GABAAR = α5-containing GABAAR (Homo sapiens, UniProt P18507+P31644); conditions: (EC20); cited from earlier work
MAM-treated rats = conditions: cited from earlier work
aged-impaired (AI) rats [3] = experiment: Morris water maze behavioral task; type: in vivo, rat; conditions: 100 μg ICV
Text: Another cognitive test that may be used to assess the effects of a test compound on the cognitive impairment of a CNS disorder model animal is the Morris water maze. A water maze is a pool surrounded with a novel set of patterns relative to the maze. […] The subject is trained to locate a submerged escape platform hidden underneath the surface of the pool. During the training trial, a subject is released in the maze (pool) from random starting positions around the perimeter of the pool. The starting position varies from trial to trial. […] After a delay period following the last training trial, a retention test in the absence of the escape platform is given to assess spatial memory. The subject's level of preference for the location of the (now absent) escape platform, as measured by, e.g., the time spent in that location or the number of crossings of that location made by the mouse, indicates better spatial memory, i.e., treatment of cognitive impairment. The preference for the location of the escape platform under different treatment conditions, can then be compared for efficacy of the test compound in treating cognitive impairment associated with CNS disorders.
The effects of 6,6 dimethyl-3-(3-hydroxypropyl)thio-1-(thiazol-2-yl)-6,7-dihydro-2-benzothiophen-4(5H)-one on the in vivo spatial memory retention of aged-impaired (AI) rats were assessed in a Morris water maze behavioral task. A water maze is a pool surrounded with a novel set of patterns relative to the maze.
Cognitively impaired aged rats were implanted unilaterally with a cannula into the lateral ventricle. Stereotaxic coordinates were 1.0 mm posterior to bregma, 1.5 mm lateral to midline, and 3.5 mm ventral to the skull surface. After about a week of recovery, the rats were pre-trained in a water maze for 2 days (6 trials per day) to locate a submerged escape platform hidden underneath the surface of the pool, in which the escape platform location varied from day to day. No intracerebroventricular (ICV) infusion was given during pre-training.
After pre-training, rats received ICV infusion of either 100 μg 6,6 dimethyl-3-(3-hydroxypropyl)thio-1-(thiazol-2-yl)-6,7-dihydro-2-benzothiophen-4(5H)-one (n=6) in 5 μl DMSO or vehicle DMSO (n=5) 40 min prior to water maze training and testing. Training consisted of 8 trials per day for 2 days where the hidden escape platform remained in the same location. Rats were given 60 seconds to locate the platform with a 60 seconds inter-trial interval. The rats were given a probe test (120 seconds) 24 hr. after the end of training where the escape platform was removed. During the training, there were 4 blocks, where each block had 4 training trials.
During a test trial 24 hr. after training, the escape platform was removed. […]

[4] = probe test 24 hr. after training

T1 sequence (P19969 32-464): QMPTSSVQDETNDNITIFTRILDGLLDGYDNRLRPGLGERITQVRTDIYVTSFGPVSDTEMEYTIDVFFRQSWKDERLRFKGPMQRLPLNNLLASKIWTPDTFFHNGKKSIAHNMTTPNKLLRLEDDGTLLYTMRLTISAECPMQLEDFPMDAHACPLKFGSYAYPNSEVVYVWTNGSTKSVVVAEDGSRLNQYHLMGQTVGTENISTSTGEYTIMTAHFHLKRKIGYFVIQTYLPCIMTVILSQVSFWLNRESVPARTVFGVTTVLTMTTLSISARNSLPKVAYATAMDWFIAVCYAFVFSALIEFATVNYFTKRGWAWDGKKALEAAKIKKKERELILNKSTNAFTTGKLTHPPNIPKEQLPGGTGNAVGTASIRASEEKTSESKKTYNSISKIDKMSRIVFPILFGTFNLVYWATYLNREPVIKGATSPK
T1 sequence (P18508 39-466): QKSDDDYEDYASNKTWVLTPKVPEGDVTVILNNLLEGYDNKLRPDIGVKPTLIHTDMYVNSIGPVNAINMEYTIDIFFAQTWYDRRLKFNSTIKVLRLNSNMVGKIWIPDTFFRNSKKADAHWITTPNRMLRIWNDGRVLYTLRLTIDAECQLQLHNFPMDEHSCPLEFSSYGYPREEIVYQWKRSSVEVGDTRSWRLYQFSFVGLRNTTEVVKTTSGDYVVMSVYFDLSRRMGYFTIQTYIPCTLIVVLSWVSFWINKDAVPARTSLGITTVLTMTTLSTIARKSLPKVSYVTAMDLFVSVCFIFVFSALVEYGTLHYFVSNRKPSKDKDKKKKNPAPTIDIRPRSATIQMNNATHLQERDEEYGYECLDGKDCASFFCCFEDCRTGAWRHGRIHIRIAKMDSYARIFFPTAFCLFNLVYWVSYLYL
α5-containing GABAAR, sequence (P31644 32-462): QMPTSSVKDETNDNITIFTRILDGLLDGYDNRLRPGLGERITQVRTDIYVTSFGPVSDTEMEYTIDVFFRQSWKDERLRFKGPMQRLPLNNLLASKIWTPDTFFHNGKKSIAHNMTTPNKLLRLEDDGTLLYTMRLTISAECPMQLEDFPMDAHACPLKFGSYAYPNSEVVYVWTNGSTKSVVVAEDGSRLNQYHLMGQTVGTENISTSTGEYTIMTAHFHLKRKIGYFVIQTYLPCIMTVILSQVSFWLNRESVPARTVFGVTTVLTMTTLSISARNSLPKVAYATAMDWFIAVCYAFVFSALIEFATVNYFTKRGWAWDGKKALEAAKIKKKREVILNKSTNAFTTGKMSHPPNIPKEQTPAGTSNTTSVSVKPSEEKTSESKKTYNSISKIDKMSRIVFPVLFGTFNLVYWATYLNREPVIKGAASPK
α5-containing GABAAR, sequence (P18507 40-475): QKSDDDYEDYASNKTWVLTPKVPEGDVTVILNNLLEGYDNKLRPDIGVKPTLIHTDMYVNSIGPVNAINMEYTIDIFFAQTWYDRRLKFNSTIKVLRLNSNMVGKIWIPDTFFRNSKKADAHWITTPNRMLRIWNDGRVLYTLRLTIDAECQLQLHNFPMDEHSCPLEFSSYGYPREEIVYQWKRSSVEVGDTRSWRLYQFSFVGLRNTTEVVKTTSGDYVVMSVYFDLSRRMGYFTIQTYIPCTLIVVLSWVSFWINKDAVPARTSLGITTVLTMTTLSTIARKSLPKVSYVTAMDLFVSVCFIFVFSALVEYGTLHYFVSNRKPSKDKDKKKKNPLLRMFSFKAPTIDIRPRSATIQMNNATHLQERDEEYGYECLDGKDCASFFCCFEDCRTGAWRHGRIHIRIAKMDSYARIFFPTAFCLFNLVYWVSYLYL
α5-containing GABAAR, sequence (P28472 26-473, further chain): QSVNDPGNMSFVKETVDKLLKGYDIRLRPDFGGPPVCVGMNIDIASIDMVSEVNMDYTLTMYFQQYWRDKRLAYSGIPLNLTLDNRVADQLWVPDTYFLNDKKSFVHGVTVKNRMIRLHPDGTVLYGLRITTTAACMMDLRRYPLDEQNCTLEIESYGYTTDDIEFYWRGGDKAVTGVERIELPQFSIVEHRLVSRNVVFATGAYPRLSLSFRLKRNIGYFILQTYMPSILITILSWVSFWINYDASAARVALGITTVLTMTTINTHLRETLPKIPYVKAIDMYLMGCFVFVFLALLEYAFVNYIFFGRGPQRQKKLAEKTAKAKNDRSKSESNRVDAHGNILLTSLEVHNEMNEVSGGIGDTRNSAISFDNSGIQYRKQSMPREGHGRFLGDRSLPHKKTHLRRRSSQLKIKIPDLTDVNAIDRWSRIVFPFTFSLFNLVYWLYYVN

## COC(=O)c1c(-c2ccccc2)cnnc1-c1ccccc1 [Methyl 3,5-diphenylpyridazine-4-carboxylate, reference compound]
aged-impaired (AI) rats [1]; 3 mg/kg ip, two-hour delay RAM, t(7)=4.233, p=0.004
  memory performance relative to vehicle control treatment: significantly improved memory performance
aged-impaired (AI) rats [1]; 3 mg/kg ip, two-hour delay, AI rats
  average no. of errors ± standard error of the mean (SEM), retention test: 1.31±0.40
[2]; dose from 0.1 to 1 mg/kg
  increase in hippocampal exposure: 12 fold
[2]; dose from 1 to 10 mg/kg
  increase in hippocampal exposure: ~5 fold
  increase in plasma exposure: 12 fold
GABAAα5 receptor; at exposures behaviorally active in aged-impaired rats, hippocampus
  GABAA α5 receptors occupied: about 32%
GABAAα5 receptor; i.v., hippocampus/cerebellum ratio
  receptor occupancy ED50, ratio method: 1.8 mg/kg
GABAAα5 receptor; rat, iv, 10 mg/kg, i.v., read-out: GABAA α5 receptor occupancy
  receptor occupancy at 10 mg/kg: > 90%
α5-containing GABAAR
  α5 in vitro efficacy: +27

## C#Cc1ccc2c(c1)C(c1ccccc1F)=N[C@H](C)c1c(C(=O)OCC)ncn1-2 [SH-053-2′F—R—CH3]
MAM-treated rats; MAM rats, systemic and infused into ventral HPC
  number of spontaneously active DA neurons in the ventral tegmental area (VTA): reduces the number of spontaneously active DA neurons in the ventral tegmental area (VTA) of MAM rats to levels observed in saline-treated rats
MAM-treated rats; MAM-treated rats
  locomotor response to amphetamine: reduced
MAM-treated rats; saline-treated and MAM-treated animals
  cortical-evoked responses of HPC neurons: diminished cortical-evoked responses

## CC1(C)CC(=O)c2c(SCCCO)sc(-c3nccs3)c2C1 [6,6 dimethyl-3-(3-hydroxypropyl)thio-1-(thiazol-2-yl)-6,7-dihydro-2-benzothiophen-4(5H)-one]
aged-impaired (AI) rats [3]; block 1 of training
  time to find the escape platform: about 24 seconds
aged-impaired (AI) rats [3]; block 4 of training
  time to find the escape platform: about 9.6 seconds
aged-impaired (AI) rats [3]; [4]
  number of crossings of target annulus vs opposite annulus: crossed the “target annulus” more often
  time in target annulus vs opposite annulus: spent significantly more time in the target annulus

## CCOC(=O)c1ncn2c1Cn1c(C)nnc1-c1cc(OC)ccc1-2 [ethyl 3-methoxy-7-methyl-9H-benzo[f]imidazo[1,5-a][1,2,4]tri]
aged-impaired (AI) rats [1]; 3 mg/kg, four-hour delay RAM, t(7)=4.13, p=0.004, or t(7)=3.08, p=0.018
  memory performance relative to vehicle control treatment: significantly improved memory performance
aged-impaired (AI) rats [1]; 10 mg/kg, four-hour delay RAM, t(7)=2.82, p=0.026
  memory performance relative to vehicle control treatment: significantly improved memory performance
GABAAα5 receptor; 0.01-10 mg/kg, i.v.
  effect on binding of Ro 15-4513 in hippocampus: reduced Ro 15-4513 binding in hippocampus
  effect on binding/levels of Ro 15-4513 in cerebellum: without affecting cerebellum levels of Ro 15-4513
GABAAα5 receptor; 10 mg/kg, i.v.
  GABAA α5 receptor occupancy: > 90%
